Measurements: US10000555B2, “Monomethylvaline compounds having phenylalanine side-chain modification at the C-terminus” (Seattle Genetics, Inc., priority 2005, dated 2018)

Experiments:
Format in all cases: cell-based
U251 = experiment: In vitro cytotoxicity of h1F6-MC-val-cit-PAB-MMAZ conjugates on CD70+ cell line U251; conditions: U251 glioblastoma, approximately 4 drugs per antibody
Protocol: (§1) The cytotoxic activity of MMAZ and antibody-drug conjugates is evaluated on the CD70+ positive cell lines, for example, Caki-1, renal cell carcinoma; L428, Hodgkin's disease; U251, glioblastoma. To evaluate the cytotoxicity of compounds, cells can be seeded at approximately 5-10,000 per well in 150 μl of culture medium, then treated with graded doses of compounds in quadruplicates at the initiation of assay. Cytotoxicity assays are usually carried out for 96 hours after addition of test compounds. Fifty μl of resazurin dye may be added to each well during the last 4 to 6 hours of the incubation to assess viable cells at the end of culture. Dye reduction can be determined by fluorescence spectrometry using the excitation and emission wavelengths of 535 nm and 590 nm, respectively. For analysis, the extent of resazurin reduction by the treated cells can be compared to that of the untreated control cells.
(§2) To evaluate the cytotoxicity of conjugates, cells are seeded at approximately 5-10,000 per well in 150 μl of culture medium and then treated with graded doses of conjugates in quadruplicates at the initiation of assay. Cytotoxicity assays are carried out for 96 hours after addition of test compounds. Fifty μl of the resazurin dye is added to each well during the last 4 to 6 hours of the incubation to assess viable cells at the end of culture. Dye reduction is determined by fluorescence spectrometry using the excitation and emission wavelengths of 535 nm and 590 nm, respectively. For analysis, the extent of resazurin reduction by the treated cells is compared to that of the untreated control cells.

Caki-1 = experiment: In vitro cytotoxicity of h1F6-MC-val-cit-PAB-MMAZ conjugates on CD70+ cell line Caki-1; conditions: Caki-1 renal cell carcinoma, approximately 4 drugs per antibody
Protocol: as §1, §2

L428 = experiment: In vitro cytotoxicity of h1F6-MC-val-cit-PAB-MMAZ conjugates on CD70+ cell line L428; conditions: for IC50 (ng/mL) of h1F6-MC-val-cit-PAB-MMAZ conjugates on CD70+ cell lines, L428: L428 Hodgkin's disease, approximately 4 drugs per antibody
Protocol: as §1, §2

Substance	IC50 (ng/mL) of h1F6-MC-val-cit-PAB-MMAZ conjugates on CD70+ cell lines, U251 (U251)	IC50 (ng/mL) of h1F6-MC-val-cit-PAB-MMAZ conjugates on CD70+ cell lines, Caki-1 (Caki-1)	IC50 (ng/mL) of h1F6-MC-val-cit-PAB-MMAZ conjugates on CD70+ cell lines, L428 (L428)	Maximum inhibition, L428 (L428; @ 141 ng/ml)	Maximum inhibition, L428 (L428; @ 100 ng/ml)	Maximum inhibition, L428 (L428; @ 1000 ng/ml)
Maleimidocaproyl-Val-Cit-PAB-MeVal-Val-Dil-Dap-Trp(Boc)-OH [SP3-k]	7.5 ng/mL	6 ng/mL	11 ng/mL	–	–	–
Maleimidocaproyl-Val-Cit-PAB-MeVal-Val-Dil-Dap-2-Chloro-Phe-OH [SP3-a]	8 ng/mL	4.4 ng/mL	8 ng/mL	–	–	–
Maleimidocaproyl-Val-Cit-PAB-MeVal-Val-Dil-Dap-Glu(OtBu)-OH [SP3-l]	43 ng/mL	51 ng/mL	–	Maximum inhibition = 12% @ 141 ng/ml	–	–
Maleimidocaproyl-Val-Cit-PAB-MeVal-Val-Dil-Dap-p-Amino-Phe-OH [SP3-e]	No effect	No effect	–	–	Maximum inhibition = 10% @ 100 ng/ml	–
Maleimidocaproyl-Val-Cit-PAB-MeVal-Val-Dil-Dap-3-(3-pyridyl)-L-Ala-OH [SP3-h]	16 ng/mL	16 ng/mL	12 ng/mL	–	–	–
Maleimidocaproyl-Val-Cit-PAB-MeVal-Val-Dil-Dap-Tic-OH [SP3-c]	20 ng/mL	28 ng/mL	–	–	–	Maximum inhibition = 12% @ 1000 ng/ml
Maleimidocaproyl-Val-Cit-PAB-MeVal-Val-Dil-Dap-Met-OH [SP3-j]	23 ng/mL	18 ng/mL	43 ng/mL	–	–	–
Maleimidocaproyl-Val-Cit-PAB-MeVal-Val-Dil-Dap-L-β-homophe-OH [SP3-d]	11 ng/mL	9 ng/mL	33 ng/mL	–	–	–
Maleimidocaproyl-Val-Cit-PAS-MeVal-Val-Dil-Dap-Me-Phe-OH [SP3-b]	8 ng/mL	6 ng/mL	6 ng/mL	–	–	–
